Values of other authors as cited in US20100151018A1, “SUSTAINED-RELEASE LEVETIRACETAM COMPOSITION AND PREPARATION PROCESS” (RD- Pharmagal, priority 2007, published 2010).
Converted amounts (≈) assume the structure as drawn.

Legend:
[1] = not given; remark: listed apart in the source

Row | solubility in water | plasma half-life ([1]; in adults) [h] | bioavailability ([1]; oral administration of immediate-release tablets) | SMILES
1 | approximately 104.0 g/100 ml | 7 | approximately 100% | CC[C@@H](C(N)=O)N1CCCC1=O [levetiracetam, S-enantiomer of a-ethyl-2-oxo-1-pyrrolidine acetamide]
2 | 308 µg/mL (≈ 1220 µM) |  |  | NC(=O)N1c2ccccc2CC(=O)c2ccccc21 [oxcarbazepine]
